Where two headings read alike, the source gives them in different places.
How the values were obtained:
[1] = system: P. falciparum stage V gametocytes; assay: Gametocytocidal ATP bioluminescence assay (single point 5 μM and 1 μM, dose-response); type: cell-based, Plasmodium falciparum; conditions: for Ratio IC50 HepG2/IC50 P. falciparum: IC50 HepG2 divided by IC50 P. falciparum gametocytes
Experimental: Purified stage IV-V gametocytes were obtained as previously described [10]. Single point ATP bioluminescence assay and dose–response of positive hits was determined in accordance with the previously published protocol [10].

[2] = system: luciferase reaction (BacTiter-Glo); assay: Interference assay (inhibition of the BacTiter-Glo luciferase reaction); type: biochemical; design: concentration or dose not given beside the values; conditions: ATP interference assay
Experimental: To discard possible false-positive results, we performed an interference assay in parallel. […] […]. The ATP solution was made by dissolving ATP powder (ATP standard from the ATPlite 1 step assay kit, reference 6016731, Perkin Elmer) in culture medium. The positive control used was the Luciferase Inhibitor I Calbiochem (Merck, 119113) at 100 μM.

HepG2 cells = assay: Cytotoxicity in HepG2 cells (intracellular ATP, ATPlite, 48 h); type: cell-based, human; conditions: HepG2 cells; IC50 per ratio column head; unit inferred
[3] = system: P. falciparum asexual stages; conditions: asexual stages; TCAMS data; read-out: IC50 asexual; cited from earlier work
[4] = P. falciparum gametocytes, average, read-out: IC50 Pf Gametocytes average, IC50 (µM) average
[5] = sexual stages (gametocytes), dose-response, read-out: IC50 sexual

## C[C@H](Cc1ccc(OCCCCCOc2ccc(C[C@@H](C)NC[C@H](O)c3cccc(Cl)c3)cc2)cc1)NC[C@H](O)c1cccc(Cl)c1 [TCMDC-131563]
[1]
  Ratio IC50 HepG2/IC50 P. falciparum: 3.25
[1]; [4]
  IC50: 0.55 µM
[2]
  % Control luminiscence: 100%
HepG2 cells
  IC50: 1790 nM
[3]
  IC50: 190 nM

## O=C(Nc1ccc(N2CCNCC2)cc1)c1ccn2ncc(-c3cccc(Cl)c3)c2n1 [TCMDC-132663]
[1]
  Ratio IC50 HepG2/IC50 P. falciparum: 6.35
[1]; [4]
  IC50: 3.5 µM
[2]
  % Control luminiscence: 95%
HepG2 cells
  IC50: 22200 nM
[3]
  IC50: 922 nM

## CN1CCN(CC2(Nc3nccc(NCCc4cn(C)c5ccccc45)n3)CCCCC2)CC1 [TCMDC-135122]
[1]
  Ratio IC50 HepG2/IC50 P. falciparum: 10
[1]; [4]
  IC50: 0.7 µM
[1]; [5]
  IC50: 0.697 µM
[2]
  % Control luminiscence: 95%
HepG2 cells
  IC50: 6940 nM
[3]
  IC50: 1810 nM

## CCCCCCC(N)c1ccc(OCCCOc2ccc(C(N)CCCCCC)cc2)cc1 (stereo not drawn) [TCMDC-137621]
[1]
  Ratio IC50 HepG2/IC50 P. falciparum: 36
[1]; [4]
  IC50: 0.0533 µM
[1]; [5]
  IC50: 0.053 µM
[2]
  % Control luminiscence: 100%
HepG2 cells
  IC50: 1900 nM
[3]
  IC50: 1140 nM

## COc1ccc(CNCCCCCCNCc2ccc(OC)c3ccccc23)c2ccccc12 [TCMDC-137631]
[1]
  Ratio IC50 HepG2/IC50 P. falciparum: 6
[1]; [4]
  IC50: 0.51 µM
[1]; [5]
  IC50: 0.505 µM
[2]
  % Control luminiscence: 91%
HepG2 cells
  IC50: 3060 nM
[3]
  IC50: 581 nM

## COc1ccc(CNCc2ccc(F)cc2)cc1-c1ccc(S(=O)(=O)NCCN2CCCC2)cc1 [TCMDC-132294]
[1]
  Ratio IC50 HepG2/IC50 P. falciparum: 5.36
[1]; [4]
  IC50: 1.21 µM
[1]; [5]
  IC50: 1.21 µM
[2]
  % Control luminiscence: 98%
HepG2 cells
  IC50: 6500 nM
[3]
  IC50: 1040 nM

## CC(Cc1ccc(CNC(=O)c2ccc(CC(C)NCCc3cccc(Cl)c3)cc2)cc1)NCCc1cccc(Cl)c1 (stereo not drawn) [TCMDC-139659]
[1]
  Ratio IC50 HepG2/IC50 P. falciparum: 5.53
[1]; [4]
  IC50: 0.57 µM
[2]
  % Control luminiscence: 98%
HepG2 cells
  IC50: 3150 nM
[3]
  IC50: 696 nM

## Cc1cc(F)ccc1-c1nc(NCC(O)CNCCc2ccccc2)nc2c1ccc(=O)n2-c1c(F)cccc1F (stereo not drawn) [TCMDC-141784]
[1]
  Ratio IC50 HepG2/IC50 P. falciparum: 37
[1]; [4]
  IC50: 0.23 µM
[2]
  % Control luminiscence: 100%
HepG2 cells
  IC50: 8470 nM
[3]
  IC50: 539 nM

## c1ccc2c(C3CCN(CCCCOc4ccc5c(c4)CCN(CC4CC4)CC5)CC3)c[nH]c2c1 [TCMDC-136244]
[1]
  Ratio IC50 HepG2/IC50 P. falciparum: 10
[1]; [4]
  IC50: 0.71 µM
[2]
  % Control luminiscence: 100%
HepG2 cells
  IC50: 6810 nM
[3]
  IC50: 982 nM

## O=C(Nc1ccc2c(c1)CCCN2S(=O)(=O)c1cccs1)c1cc([N+](=O)[O-])ccc1Cl [TCMDC-125153]
[1]
  Ratio IC50 HepG2/IC50 P. falciparum: >9
[1]; [4]
  IC50: 2.66 µM
[1]; [5]
  IC50: 2.66 µM
[2]
  % Control luminiscence: 100%
HepG2 cells
  IC50: > 25000 nM
[3]
  IC50: 845 nM

## CN(C)c1ccc2c(c1)Sc1cc(N(C)C)ccc1N2C(=O)CCCC(=O)O [TCMDC-125778]
[1]; [4]
  IC50: > 5 µM
[2]
  % Control luminiscence: 100%
HepG2 cells
  IC50: > 25000 nM
[3]
  IC50: 802 nM

## O=C(Nc1cccc(Oc2ccccc2)c1)N[C@H]1CCN(Cc2ccc(OCCCN3CCCCC3)cc2)C1 [TCMDC-141785]
[1]
  Ratio IC50 HepG2/IC50 P. falciparum: 3
[1]; [4]
  IC50: 1.13 µM
[2]
  % Control luminiscence: 100%
HepG2 cells
  IC50: 3520 nM
[3]
  IC50: 724 nM

## CCN(CC)CCCNc1nccc(N2CCc3ncnc(Nc4ccc(OCc5cccc(F)c5)c(Cl)c4)c3C2)n1 [TCMDC-135406]
[1]
  Ratio IC50 HepG2/IC50 P. falciparum: 8
[1]; [4]
  IC50: 0.72 µM
[1]; [5]
  IC50: 0.715 µM
[2]
  % Control luminiscence: 100%
HepG2 cells
  IC50: 5580 nM
[3]
  IC50: 111 nM

## Fc1ccc(OC2CN(c3nccc(NCc4ccccc4Cl)n3)C2)cc1 [TCMDC-135110]
[1]
  Ratio IC50 HepG2/IC50 P. falciparum: >10
[1]; [4]
  IC50: 2.51 µM
[1]; [5]
  IC50: 2.51 µM
[2]
  % Control luminiscence: 98%
HepG2 cells
  IC50: > 25000 nM
[3]
  IC50: 898 nM

## CN(CCCNCc1ccc2ccccc2c1)CCCNCc1ccc2ccccc2c1 [TCMDC-137908]
[1]
  Ratio IC50 HepG2/IC50 P. falciparum: 94
[1]; [4]
  IC50: 0.05 µM
[2]
  % Control luminiscence: 100%
HepG2 cells
  IC50: 4680 nM
[3]
  IC50: 391 nM

## CC(CCCCCC(=O)Nc1ccc(CC(C)NCCc2cccc(Cl)c2)cc1)NCCc1cccc(Cl)c1 (stereo not drawn) [TCMDC-139800]
[1]
  Ratio IC50 HepG2/IC50 P. falciparum: 7.38
[1]; [4]
  IC50: 0.43 µM
[1]; [5]
  IC50: 0.433 µM
[2]
  % Control luminiscence: 100%
HepG2 cells
  IC50: 3200 nM
[3]
  IC50: 948 nM

## CC(C)CC(=O)N(Cc1ccc(-c2ccc(CNC3Cc4ccccc4C3)cc2)cc1)C1CCNCC1 [TCMDC-141449]
[1]
  Ratio IC50 HepG2/IC50 P. falciparum: 10
[1]; [4]
  IC50: 0.63 µM
[1]; [5]
  IC50: 0.633 µM
[2]
  % Control luminiscence: 100%
HepG2 cells
  IC50: 6200 nM
[3]
  IC50: 1170 nM

Reference: article PMC4552634, “A New Set of Chemical Starting Points with Plasmodium falciparum Transmission-Blocking Potential for Antimalarial Drug Discovery” (PLoS ONE, 2015)
